This note sets out measurements from US20180282323A1, “Mesoionic imidazole derivatives as insecticides” (BAYER CROPSCIENCE AKTIENGESELLSCHAFT, priority 2015, published 2018).

For one data set, the system named is Phaedon cochleariae. Put plainly: Phaedon cochleariae spray test. It counts as in vivo. The conditions noted are these: application rate 500 g/ha, Chinese cabbage leaf discs, larvae, after 7 days. On the procedure: Phaedon cochleariae—Spray Test Solvent: 78.0 parts by weight of acetone • • 1.5 parts by weight of dimethylformamide Emulsifier: alkylaryl polyglycol ether
To produce a suitable active ingredient formulation, 1 part by weight of active ingredient is dissolved with the stated parts by weight of solvent and made up with water containing an emulsifier concentration of 1000 ppm until the desired concentration is attained. To produce further test concentrations, the formulation is diluted with emulsifier-containing water.
Discs of Chinese cabbage leaves (Brassica pekinensis) are sprayed with an active ingredient formulation of the desired concentration and, after drying, populated with larvae of the mustard beetle (Phaedon cochleariae).
After 7 days, the efficacy in % is determined. 100% means that all the beetle larvae have been killed; 0% means that no beetle larvae have been killed.

Data set [1] has as its system Myzus persicae. Put plainly: Myzus persicae spray test (Chinese cabbage leaf discs). It counts as in vivo. To be noted: application rate 500 g/ha, after 6 days. Put shortly: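 Active ingredient was formulated in acetone/DMF and diluted with water containing 1000 ppm emulsifier. Chinese cabbage leaf discs infested with all aphid stages were sprayed, and % kill was scored after 6 days (100% = all aphids dead).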

The next data set relates to Diabrotica balteata. Put plainly: Diabrotica balteata spray test. It counts as in vivo. The conditions noted are these: application rate 160 μg/well, wheat grains with beetle larvae, after 7 days. Put shortly:
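Compound in acetone/DMF with emulsifier water sprayed onto wheat seedlings germinated one day on agar, 5 grains per well. Each well then infested with 10-20 Diabrotica balteata larvae. Efficacy scored after 7 days: 100% = plant growth as uninfected control, 0% = no plants grown.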

The test system of the next data set is Ctenocephalides felis. Put plainly: Ctenocephalides felis in vitro contact test with adult cat fleas. It counts as in vivo. To be noted: application rate 5 μg/cm^2, after 48 h, adult cat fleas dead or moribund. On the procedure: Ctenocephalides felis—In Vitro Contact Tests with Adult Cat Fleas
For the coating of the test tubes, 9 mg of active ingredient are first dissolved in 1 ml of acetone p.a. and then diluted to the desired concentration with acetone p.a. 250 μl of the solution are distributed homogeneously on the inner walls and the base of a 25 ml test tube by turning and rocking on an orbital shaker (rocking rotation at 30 rpm for 2 h). With 900 ppm of active ingredient solution and internal surface area 44.7 cm^2, given homogeneous distribution, an area-based dose of 5 μg/cm^2 is achieved.
After the solvent has evaporated off, the tubes are populated with 5-10 adult cat fleas (Ctenocephalides felis), sealed with a perforated plastic lid and incubated in a horizontal position at room temperature and ambient humidity. After 48 h, efficacy is determined. To this end, the test tubes are stood upright and the fleas are knocked to the base of the tube. Fleas which remain motionless at the base or move in an uncoordinated manner are considered to be dead or moribund.
100% efficacy means that all the fleas were dead or moribund. 0% efficacy means that no fleas were harmed.

The subject of data set [2] is Myzus persicae. Put plainly: Myzus persicae oral test. The conditions noted are these: application rate 20 ppm, oral uptake through parafilm, after 5 days. It counts as in vivo. Put shortly: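 Oral feeding format: mixed-stage Myzus persicae imbibe acetone/water compound formulation in sugared IPL41 medium through parafilm. Efficacy assessed as percent aphids killed at day 5.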

Data set [3] in a line: log P by HPLC on reversed-phase column (EEC directive 79/831 Annex V.A8). It counts as physicochemical. To be noted: for log p: HPLC on reversed-phase column (footnote a); for log p a): HPLC on reversed-phase column. The method in brief:
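Reversed-phase (C18) HPLC at 43° C, following EEC directive 79/831 Annex V.A8.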

The next data set concerns Meloidogyne incognita. Put plainly: Meloidogyne incognita test. It counts as in vivo. To be noted: application rate 20 ppm, formation of galls on lettuce after 14 days. On the procedure:
Meloidogyne incognita Test Solvent: 125.0 parts by weight of acetone
To produce a suitable preparation of active ingredient, 1 part by weight of active ingredient is mixed with the stated amount of solvent and the concentrate is diluted with water to the desired concentration.
Vessels are filled with sand, active ingredient solution, an egg/larvae suspension of the southern root-knot nematode (Meloidogyne incognita) and lettuce seeds. The lettuce seeds germinate and the plants develop. The galls develop on the roots.
After 14 days, the nematicidal efficacy in % is determined by the formation of galls. 100% means that no galls were found; 0% means that the number of galls on the treated plants corresponds to the untreated control.

Data set [4] concerns Myzus persicae. Put plainly: Myzus persicae spray test (bell pepper plants). To be noted: application rate 100 ppm, after 6 days. It counts as in vivo. On the procedure:
Myzus persicae—Spray Test Solvent: 14 parts by weight of dimethylformamide Emulsifier: alkylaryl polyglycol ether
To produce a suitable active ingredient formulation, 1 part by weight of active ingredient is dissolved with the stated parts by weight of solvent and made up with water containing an emulsifier concentration of 1000 ppm until the desired concentration is attained. To produce further test concentrations, the formulation is diluted with emulsifier-containing water. If the addition of ammonium salts or/and penetrants is required, these are each added in a concentration of 1000 ppm to the formulation solution.
Bell pepper plants (Capsicum annuum) severely infested with the green peach aphid (Myzus persicae) are treated by spraying with the active ingredient formulation in the desired concentration.
After 6 days, the kill in % is determined. 100% means that all of the aphids have been killed; 0% means that none of the aphids have been killed.

The test system of another data set is Lucilia cuprina. Put plainly: Lucilia cuprina test. The conditions noted are these: application rate 100 ppm, L1 larvae, after 2 days. It counts as in vivo. On the procedure: Lucilia cuprina Test Solvent: dimethyl sulphoxide
To produce a suitable active ingredient formulation, 10 mg of active ingredient are mixed with 0.5 ml of dimethyl sulphoxide, and the concentrate is diluted with water to the desired concentration.
About 20 L1 larvae of the Australian sheep blowfly (Lucilia cuprina) are transferred into a test vessel containing minced horsemeat and the active ingredient formulation of the desired concentration.
After 2 days, the kill in % is determined. 100% means that all the larvae have been killed; 0% means that no larvae have been killed.

In the case of `COCC(=O)c1c([O-])n(Cc2cnc(Cl)s2)c2c(C)ccc[n+]12` [Example I-1-082], the efficacy with Phaedon cochleariae, in the data set with Myzus persicae [1], in the data set on Diabrotica balteata, in the data set with Ctenocephalides felis and in the data set with Myzus persicae [2] was 100% in each case. For the same molecule, in data set [3], the log p is listed as 1.46.
For `CCOCC(=O)c1c([O-])n(Cc2cnc(Cl)s2)c2c(C)ccc[n+]12` [Example I-1-083], the efficacy in the data set with Phaedon cochleariae is 100%; in the data set on Myzus persicae [1], 90%; with Diabrotica balteata it was 100%; in the data set with Myzus persicae [2], 100%. Besides, the log p in data set [3] stood at 1.72.
For `Cc1ccc[n+]2c(C(=O)Cn3ccc(Cl)n3)c([O-])n(Cc3cnc(Cl)s3)c12` [Example I-1-093], the efficacy with Phaedon cochleariae and in the data set with Myzus persicae [2] was 100% each time. Further, the log p in [3] stood at 2.23.
With `COc1cnn(CC(=O)c2c([O-])n(Cc3cnc(Cl)s3)c3c(C)ccc[n+]23)c1` [Example I-1-094], the efficacy in the data set on Phaedon cochleariae is on record as 100%. Further, the log p in [3] worked out at 1.75.
On to `CCCOCC(=O)c1c([O-])n(Cc2cnc(Cl)s2)c2c(C)ccc[n+]12` [Example I-1-097], for which the efficacy with Phaedon cochleariae is 100%; in the data set with Myzus persicae [1] it was 90%; with Diabrotica balteata it was 100%; with Myzus persicae [2] it was 100%. The molecule further had a log p in data set [3] of 2.11.
In turn, `CC(C)CNC(=O)c1c([O-])n(Cc2cnc(Cl)s2)c2cccc[n+]12` [Example I-1-147] had a nematicidal efficacy with Meloidogyne incognita of 90%. Besides, the efficacy in the data set on Diabrotica balteata was 100%; with Ctenocephalides felis it was 80%; in the data set with Myzus persicae [2], 100%. Moreover, in the data set with Myzus persicae [4], the “efficacy (kill in %)” value is listed as 100%. Further, in data set [3], the log p is 2.29.
Take `O=C(NC1CC1)c1c([O-])n(Cc2ccc(Cl)nc2)c2cccc[n+]12` [Example I-1-154]: the results for the efficacy with Phaedon cochleariae, in the data set on Diabrotica balteata and with Myzus persicae [2] were 100%, 80% and 100%, respectively. For the same molecule, the “efficacy (kill in %)” value in the data set with Lucilia cuprina was 95%; in the data set with Myzus persicae [4] it was 100%. For the same molecule, the log p in data set [3] is on record as 1.59.
`COC(=O)c1c([O-])n(C(C)c2cnc(Cl)s2)c2cccc[n+]12` (stereo not shown) [Example I-1-262]: the efficacy in the data set on Phaedon cochleariae is recorded as 83%. For the same molecule, the “log p a)” value in data set [3] is reported as 1.45.
Take `Cc1ccc[n+]2c(C(=O)Nc3c(Cl)cccc3Cl)c([O-])n(Cc3cnc(Cl)s3)c12` [Example I-1-277]: the efficacy with Phaedon cochleariae turned out to be 83%; in the data set on Diabrotica balteata it was 100%; with Myzus persicae [2], 100%. The nematicidal efficacy in the data set with Meloidogyne incognita amounted to 90%. Besides, in [3], the “log p a)” value turned out to be 3.11.
